Test results taken from patent US4684664A, “Derivatives of β-(4-isocyano-1,2,3,4-diepoxycyclopentyl) acrylic acid” (Kureha Kagaku Kogyo Kabushiki Kaisha, priority 1984, dated 1987).
In brackets after ≈: the same amount, converted by molar mass.

What was measured:
Type in all cases: cell-based
[1] = system: Candida albicans IAM 4905; assay: Antifungal activity, agar-dilution MIC, organism No. 29; details: Candida albicans, IAM4905; Organism No. 29, bouillon-agar; read-out: Minimum Inhibitory Concentration
Summary of the method: (§1)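 Bouillon-agar culture medium served for the agar-dilution test; inhibitory endpoint expressed per ml of medium in μg.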

Proteus vulgaris HX-19 = assay: Antibacterial activity, agar-dilution MIC, organism No. 21; details: Proteus vulgaris, HX19; Organism No. 21, bouillon-agar; read-out: Minimum Inhibitory Concentration
Summary of the method: as §1

[2] = system: Proteus morganii IFO 3848; assay: Antibacterial activity, agar-dilution MIC, organism No. 18; details: Morganella morganii, IFO3848; Organism No. 18, bouillon-agar; read-out: Minimum Inhibitory Concentration
Summary of the method: as §1

[3] = system: Staphylococcus aureus MS 353; assay: Antibacterial activity, agar-dilution MIC, organism No. 3; details: Staphylococcus aureus, MS353; Organism No. 3, bouillon-agar; read-out: Minimum Inhibitory Concentration
Summary of the method: as §1

[4] = system: Proteus mirabilis IFO 3849; assay: Antibacterial activity, agar-dilution MIC, organism No. 19; details: Proteus mirabilis, IFO3849; Organism No. 19, bouillon-agar; read-out: Minimum Inhibitory Concentration
Summary of the method: as §1

[5] = system: Serratia marcescens IAM 1184; assay: Antibacterial activity, agar-dilution MIC, organism No. 13; details: Serratia marcescens, IAM1184; Organism No. 13, bouillon-agar; read-out: Minimum Inhibitory Concentration
Text: Agar-dilution method was used for determination of the antibacterial activity and antifungal activity while using bouillon-agar culture medium, and the minimum inhibitory concentration of the specimen was expressed by μg/ml of the culture medium.

[6] = system: Pseudomonas aeruginosa IFO 3445; assay: Antibacterial activity, agar-dilution MIC, organism No. 15; details: Pseudomonas aeruginosa, IFO3445; Organism No. 15, bouillon-agar; read-out: Minimum Inhibitory Concentration
Summary of the method: as §1

Salmonella typhi 901 = assay: Antibacterial activity, agar-dilution MIC, organism No. 9; details: Salmonella enterica, TYPHI, read-out: Minimum Inhibitory Concentration
Summary of the method: as §1

[7] = system: Salmonella enteritidis G 14; assay: Antibacterial activity, agar-dilution MIC, organism No. 12; details: Salmonella enterica, ENTERITIDIS; Organism No. 12, bouillon-agar; read-out: Minimum Inhibitory Concentration
Summary of the method: as §1

[8] = system: Staphylococcus aureus FDA 209PJc-1; assay: Antibacterial activity, agar-dilution MIC, organism No. 1; details: Staphylococcus aureus, FDA209PJC1; Organism No. 1, bouillon-agar; read-out: Minimum Inhibitory Concentration
Summary of the method: as §1

[9] = system: Streptococcus pyogenes Cook; assay: Antibacterial activity, agar-dilution MIC, organism No. 4; details: Streptococcus pyogenes; Organism No. 4, bouillon-agar; read-out: Minimum Inhibitory Concentration
Summary of the method: as §1

[10] = system: Aspergillus niger IFO 6342; assay: Antifungal activity, agar-dilution MIC, organism No. 30; details: Aspergillus niger, IFO6342; Organism No. 30, bouillon-agar; read-out: Minimum Inhibitory Concentration
Summary of the method: as §1

[11] = system: Escherichia coli NIHJ-JC-2; assay: Antibacterial activity, agar-dilution MIC, organism No. 5; details: Escherichia coli, NIHJJC2; Organism No. 5, bouillon-agar; read-out: Minimum Inhibitory Concentration
Summary of the method: as §1

Enterobacter cloacae 963 = assay: Antibacterial activity, agar-dilution MIC, organism No. 24; details: Enterobacter cloacae, 963; Organism No. 24, bouillon-agar; read-out: Minimum Inhibitory Concentration
Summary of the method: as §1

[12] = system: Bacillus subtilis ATCC 6633; assay: Antibacterial activity, agar-dilution MIC, organism No. 14; details: Bacillus subtilis, ATCC6633; Organism No. 14, bouillon-agar; read-out: Minimum Inhibitory Concentration
Summary of the method: as §1

[13] = system: Enterobacter aerogenes ATCC 13048; assay: Antibacterial activity, agar-dilution MIC, organism No. 23; details: Klebsiella aerogenes, ATCC13048; Organism No. 23, bouillon-agar; read-out: Minimum Inhibitory Concentration
Summary of the method: as §1

Proteus vulgaris OX-19 = assay: Antibacterial activity, agar-dilution MIC, organism No. 20; details: Proteus vulgaris, OX19; Organism No. 20, bouillon-agar; read-out: Minimum Inhibitory Concentration
Summary of the method: as §1

[14] = system: Staphylococcus aureus Terajima; assay: Antibacterial activity, agar-dilution MIC, organism No. 2; details: Staphylococcus aureus; Organism No. 2, bouillon-agar; read-out: Minimum Inhibitory Concentration
Summary of the method: as §1

[15] = system: Pseudomonas aeruginosa NCTC 10490; assay: Antibacterial activity, agar-dilution MIC, organism No. 16; details: Pseudomonas aeruginosa, NCTC10490; Organism No. 16, bouillon-agar; read-out: Minimum Inhibitory Concentration
Summary of the method: as §1

[16] = system: Salmonella paratyphi-A 1015; assay: Antibacterial activity, agar-dilution MIC, organism No. 10; details: Salmonella enterica, PARATYPHI, read-out: Minimum Inhibitory Concentration
Summary of the method: as §1

[17] = system: Micrococcus luteus ATCC 9341; assay: Antibacterial activity, agar-dilution MIC, organism No. 25; details: Micrococcus luteus, ATCC9341; Organism No. 25, bouillon-agar; read-out: Minimum Inhibitory Concentration
Summary of the method: as §1

[18] = system: Pseudomonas aeruginosa PAO 1; assay: Antibacterial activity, agar-dilution MIC, organism No. 17; details: Pseudomonas aeruginosa, PAO1; Organism No. 17, bouillon-agar; read-out: Minimum Inhibitory Concentration
Summary of the method: as §1

[19] = system: Streptococcus pyogenes IFO 3340; assay: Antibacterial activity, agar-dilution MIC, organism No. 26; details: Streptococcus pyogenes, IFO3340; Organism No. 26, bouillon-agar; read-out: Minimum Inhibitory Concentration
Summary of the method: as §1

[20] = system: Salmonella typhimurium IID 971; assay: Antibacterial activity, agar-dilution MIC, organism No. 8; details: Salmonella enterica; Organism No. 8, bouillon-agar; read-out: Minimum Inhibitory Concentration
Summary of the method: as §1

[21] = system: Escherichia coli K12 C600 IAM 1264; assay: Antibacterial activity, agar-dilution MIC, organism No. 6; details: Escherichia coli, IAM1264; Organism No. 6, bouillon-agar; read-out: Minimum Inhibitory Concentration
Summary of the method: as §1

[22] = system: Klebsiella pneumoniae PCI-602; assay: Antibacterial activity, agar-dilution MIC, organism No. 7; details: Klebsiella pneumoniae, PCI602; Organism No. 7, bouillon-agar; read-out: Minimum Inhibitory Concentration
Summary of the method: as §1

[23] = system: Proteus rettgeri IFO 3850; assay: Antibacterial activity, agar-dilution MIC, organism No. 22; details: Providencia rettgeri, IFO3850; Organism No. 22, bouillon-agar; read-out: Minimum Inhibitory Concentration
Summary of the method: as §1

[24] = system: Salmonella shottmuelleri 8006; assay: Antibacterial activity, agar-dilution MIC, organism No. 11; details: Salmonella, 8006; Organism No. 11, bouillon-agar; read-out: Minimum Inhibitory Concentration
Summary of the method: as §1

SMILES | MIC [1] | MIC (Proteus vulgaris HX-19) | MIC [2] | MIC [3] | MIC [4] | MIC [5] | MIC [6] | MIC (Salmonella typhi 901) | MIC [7] | MIC [8] | MIC [9] | MIC [10] | MIC [11] | MIC (Enterobacter cloacae 963) | MIC [12] | MIC [13] | MIC (Proteus vulgaris OX-19) | MIC [14] | MIC [15] | MIC [16] | also measured
[C-]#[N+]C12CC3(/C=C/C(=O)Nc4ccc(OCCC)cc4)OC3C1O2 (centres unmarked) [compound 73] | 12.5 µg/mL (≈ 38.3 µM) | 0.78 µg/mL (≈ 2.39 µM) | 12.5 µg/mL (≈ 38.3 µM) | 1.56 µg/mL (≈ 4.78 µM) | > 200 µg/mL | > 200 µg/mL | > 200 µg/mL | 50 µg/mL (≈ 153 µM) | > 200 µg/mL | 0.78 µg/mL (≈ 2.39 µM) | 100 µg/mL (≈ 306 µM) | 12.5 µg/mL (≈ 38.3 µM) | > 200 µg/mL | > 200 µg/mL | 12.5 µg/mL (≈ 38.3 µM) | > 200 µg/mL | 1.56 µg/mL (≈ 4.78 µM) | 1.56 µg/mL (≈ 4.78 µM) | > 200 µg/mL | 0.39 µg/mL (≈ 1.2 µM) | MIC [17]: 1.56 µg/mL (≈ 4.78 µM); MIC [18]: > 200 µg/mL; MIC [19]: 1.56 µg/mL (≈ 4.78 µM); MIC [20]: > 200 µg/mL; MIC [21]: > 200 µg/mL; MIC [22]: 1.56 µg/mL (≈ 4.78 µM); MIC [23]: > 200 µg/mL; MIC [24]: 1.56 µg/mL (≈ 4.78 µM)
[C-]#[N+]C12CC3(/C=C/C(=O)Nc4ccc(OC(C)C)cc4)OC3C1O2 (centres unmarked) [compound 74] | 12.5 µg/mL (≈ 38.3 µM) | 1.56 µg/mL (≈ 4.78 µM) | 6.25 µg/mL (≈ 19.2 µM) | 1.56 µg/mL (≈ 4.78 µM) | > 200 µg/mL | > 200 µg/mL | > 200 µg/mL | 12.5 µg/mL (≈ 38.3 µM) | 200 µg/mL (≈ 613 µM) | 0.78 µg/mL (≈ 2.39 µM) | 100 µg/mL (≈ 306 µM) | 12.5 µg/mL (≈ 38.3 µM) | > 200 µg/mL | > 200 µg/mL | 6.25 µg/mL (≈ 19.2 µM) | > 200 µg/mL | 1.56 µg/mL (≈ 4.78 µM) | 6.25 µg/mL (≈ 19.2 µM) | > 200 µg/mL | 1.56 µg/mL (≈ 4.78 µM) | MIC [17]: 12.5 µg/mL (≈ 38.3 µM); MIC [18]: > 200 µg/mL; MIC [19]: 3.13 µg/mL (≈ 9.59 µM); MIC [20]: > 200 µg/mL; MIC [21]: > 200 µg/mL; MIC [22]: 1.56 µg/mL (≈ 4.78 µM); MIC [23]: 100 µg/mL (≈ 306 µM); MIC [24]: 3.13 µg/mL (≈ 9.59 µM)
